Assay results as given in PubChem BioAssay (NCI).
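A five-concentration, 48-hour dose response in 96-well plates underlies each endpoint, interpolated linearly between surrounding concentrations. Definition used: TGI = concentration required for complete inhibition of growth.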

Experiments:
Assay in all cases: DTP human tumour cell line panel, 48 h
RXF 393 renal = tested on: RXF 393 renal
NCI-H460 lung = tested on: NCI-H460 lung
SK-MEL-28 melanoma = tested on: SK-MEL-28 melanoma
KM12 colon = tested on: KM12 colon
SW-620 colon = tested on: SW-620 colon
HOP-62 NSCLC = tested on: HOP-62 NSCLC
EKVX NSCLC = tested on: EKVX NSCLC
HOP-92 NSCLC = tested on: HOP-92 NSCLC
MALME-3M melanoma = tested on: MALME-3M melanoma
UACC-257 melanoma = tested on: UACC-257 melanoma
PC-3 prostate = tested on: PC-3 prostate
NCI-H226 lung = tested on: NCI-H226 lung
786-0 renal = tested on: 786-0 renal
MDA-MB-435 = tested on: MDA-MB-435
NCI-H23 lung = tested on: NCI-H23 lung
HCC-2998 colon = tested on: HCC-2998 colon
MCF7 breast = tested on: MCF7 breast
M14 melanoma = tested on: M14 melanoma
HCT-15 colon = tested on: HCT-15 colon
SN12C renal = tested on: SN12C renal
SNB-75 CNS = tested on: SNB-75 CNS
ACHN renal = tested on: ACHN renal
NCI-H522 lung = tested on: NCI-H522 lung
MDA-MB-231 breast = tested on: MDA-MB-231 breast
A498 renal = tested on: A498 renal
SK-MEL-5 melanoma = tested on: SK-MEL-5 melanoma
DU-145 prostate = tested on: DU-145 prostate
OVCAR-4 ovarian = tested on: OVCAR-4 ovarian
UO-31 renal = tested on: UO-31 renal
SF-539 CNS = tested on: SF-539 CNS
A549 NSCLC = tested on: A549 NSCLC
SK-OV-3 ovarian = tested on: SK-OV-3 ovarian
SF-268 CNS = tested on: SF-268 CNS
HCT-116 colon = tested on: HCT-116 colon
SF-295 CNS = tested on: SF-295 CNS
IGROV1 ovarian = tested on: IGROV1 ovarian
TK-10 renal = tested on: TK-10 renal
RPMI-8226 leukemia = tested on: RPMI-8226 leukemia
LOX IMVI melanoma = tested on: LOX IMVI melanoma
U251 CNS = tested on: U251 CNS
UACC-62 melanoma = tested on: UACC-62 melanoma
SR leukemia = tested on: SR leukemia
OVCAR-3 ovarian = tested on: OVCAR-3 ovarian
CCRF-CEM leukemia = tested on: CCRF-CEM leukemia
CAKI-1 renal = tested on: CAKI-1 renal
MDA-N = tested on: MDA-N
SK-MEL-2 melanoma = tested on: SK-MEL-2 melanoma
OVCAR-5 ovarian = tested on: OVCAR-5 ovarian
T-47D breast = tested on: T-47D breast
BT-549 breast = tested on: BT-549 breast
NCI/ADR-RES ovarian = tested on: NCI/ADR-RES ovarian
COLO 205 colon = tested on: COLO 205 colon
SNB-19 CNS = tested on: SNB-19 CNS
HS 578T breast = tested on: HS 578T breast
HT29 colon = tested on: HT29 colon
K-562 leukemia = tested on: K-562 leukemia
HL-60(TB) leukemia = tested on: HL-60(TB) leukemia
MOLT-4 leukemia = tested on: MOLT-4 leukemia
OVCAR-8 ovarian = tested on: OVCAR-8 ovarian

CCOc1cc2c(cc1O)C=C[C@@H]1[C@@H]2CC[C@]2(C)[C@@H](O)CC[C@@H]12
TGI (RXF 393 renal): > 96.1 µM
TGI (NCI-H460 lung): 12.5 µM
TGI (SK-MEL-28 melanoma): > 100 µM
TGI (KM12 colon): 20.9 µM
TGI (SW-620 colon): > 35.3 µM
TGI (HOP-62 NSCLC): 49.3 µM
TGI (EKVX NSCLC): > 100 µM
TGI (HOP-92 NSCLC): > 100 µM
TGI (MALME-3M melanoma): 35.6 µM
TGI (UACC-257 melanoma): > 100 µM
TGI (PC-3 prostate): > 100 µM
TGI (NCI-H226 lung): 56.9 µM
TGI (786-0 renal): > 43.4 µM
TGI (MDA-MB-435): 1.36 µM
TGI (NCI-H23 lung): > 48.1 µM
TGI (HCC-2998 colon): 18.7 µM
TGI (MCF7 breast): > 75.8 µM
TGI (M14 melanoma): 28 µM
TGI (HCT-15 colon): 20.1 µM
TGI (SN12C renal): > 77.3 µM
TGI (SNB-75 CNS): > 58.6 µM
TGI (ACHN renal): > 100 µM
TGI (NCI-H522 lung): 7.3 µM
TGI (MDA-MB-231 breast): 28.9 µM
TGI (A498 renal): 57.9 µM
TGI (SK-MEL-5 melanoma): 23.6 µM
TGI (DU-145 prostate): 26.8 µM
TGI (OVCAR-4 ovarian): > 100 µM
TGI (UO-31 renal): > 86.1 µM
TGI (SF-539 CNS): 7.03 µM
TGI (A549 NSCLC): > 100 µM
TGI (SK-OV-3 ovarian): > 70.2 µM
TGI (SF-268 CNS): > 100 µM
TGI (HCT-116 colon): 16 µM
TGI (SF-295 CNS): 5.45 µM
TGI (IGROV1 ovarian): > 75.1 µM
TGI (TK-10 renal): > 92 µM
TGI (RPMI-8226 leukemia): > 100 µM
TGI (LOX IMVI melanoma): 30.4 µM
TGI (U251 CNS): > 38.3 µM
TGI (UACC-62 melanoma): > 43.1 µM
TGI (SR leukemia): 23.7 µM
TGI (OVCAR-3 ovarian): 6.74 µM
TGI (CCRF-CEM leukemia): > 42.5 µM
TGI (CAKI-1 renal): 28.9 µM
TGI (MDA-N): > 100 µM
TGI (SK-MEL-2 melanoma): 42 µM
TGI (OVCAR-5 ovarian): > 100 µM
TGI (T-47D breast): 77.4 µM
TGI (BT-549 breast): > 100 µM
TGI (NCI/ADR-RES ovarian): 12.8 µM
TGI (COLO 205 colon): 47.2 µM
TGI (SNB-19 CNS): > 55.4 µM
TGI (HS 578T breast): > 100 µM
TGI (HT29 colon): 24.3 µM
TGI (K-562 leukemia): > 100 µM
TGI (HL-60(TB) leukemia): 7.58 µM
TGI (MOLT-4 leukemia): 73.1 µM
TGI (OVCAR-8 ovarian): > 62.4 µM

COc1ccc(Cc2ccc3[nH]c(=O)cc(C)c3c2)cc1S(=O)(=O)O
TGI (RXF 393 renal): > 100 µM
TGI (NCI-H460 lung): > 100 µM
TGI (SK-MEL-28 melanoma): > 100 µM
TGI (KM12 colon): > 100 µM
TGI (SW-620 colon): > 100 µM
TGI (HOP-62 NSCLC): > 100 µM
TGI (EKVX NSCLC): > 100 µM
TGI (HOP-92 NSCLC): > 100 µM
TGI (MALME-3M melanoma): > 100 µM
TGI (UACC-257 melanoma): > 100 µM
TGI (PC-3 prostate): > 100 µM
TGI (NCI-H226 lung): > 100 µM
TGI (786-0 renal): > 100 µM
TGI (MDA-MB-435): > 100 µM
TGI (NCI-H23 lung): > 100 µM
TGI (MCF7 breast): > 100 µM
TGI (M14 melanoma): > 100 µM
TGI (HCT-15 colon): > 100 µM
TGI (SN12C renal): > 100 µM
TGI (SNB-75 CNS): > 100 µM
TGI (ACHN renal): > 100 µM
TGI (NCI-H522 lung): > 100 µM
TGI (MDA-MB-231 breast): > 100 µM
TGI (A498 renal): > 100 µM
TGI (SK-MEL-5 melanoma): > 100 µM
TGI (DU-145 prostate): > 100 µM
TGI (OVCAR-4 ovarian): > 100 µM
TGI (UO-31 renal): > 100 µM
TGI (SF-539 CNS): > 100 µM
TGI (A549 NSCLC): > 100 µM
TGI (SK-OV-3 ovarian): > 100 µM
TGI (SF-268 CNS): > 100 µM
TGI (HCT-116 colon): > 100 µM
TGI (SF-295 CNS): > 100 µM
TGI (IGROV1 ovarian): > 100 µM
TGI (TK-10 renal): > 100 µM
TGI (RPMI-8226 leukemia): > 100 µM
TGI (LOX IMVI melanoma): > 100 µM
TGI (U251 CNS): > 100 µM
TGI (UACC-62 melanoma): > 100 µM
TGI (SR leukemia): > 100 µM
TGI (OVCAR-3 ovarian): > 100 µM
TGI (CCRF-CEM leukemia): > 100 µM
TGI (CAKI-1 renal): > 100 µM
TGI (MDA-N): > 100 µM
TGI (SK-MEL-2 melanoma): > 100 µM
TGI (OVCAR-5 ovarian): > 100 µM
TGI (T-47D breast): > 100 µM
TGI (BT-549 breast): > 100 µM
TGI (NCI/ADR-RES ovarian): > 100 µM
TGI (COLO 205 colon): > 100 µM
TGI (SNB-19 CNS): > 100 µM
TGI (HS 578T breast): > 100 µM
TGI (HT29 colon): > 100 µM
TGI (K-562 leukemia): > 100 µM
TGI (HL-60(TB) leukemia): > 100 µM
TGI (MOLT-4 leukemia): > 100 µM
TGI (OVCAR-8 ovarian): > 100 µM

CCOC(=O)C1=NN(c2ccc(C)cc2)C2(c3ccccc3)C=C(c3ccccc3)N(C)CCN12 (stereo not given)
TGI (RXF 393 renal): > 100 µM
TGI (SK-MEL-28 melanoma): > 100 µM
TGI (KM12 colon): > 100 µM
TGI (SW-620 colon): > 100 µM
TGI (HOP-62 NSCLC): > 100 µM
TGI (EKVX NSCLC): > 100 µM
TGI (HOP-92 NSCLC): > 100 µM
TGI (MALME-3M melanoma): > 100 µM
TGI (UACC-257 melanoma): > 100 µM
TGI (PC-3 prostate): > 100 µM
TGI (NCI-H226 lung): > 100 µM
TGI (786-0 renal): > 100 µM
TGI (MDA-MB-435): > 100 µM
TGI (NCI-H23 lung): > 100 µM
TGI (HCC-2998 colon): > 100 µM
TGI (MCF7 breast): > 100 µM
TGI (M14 melanoma): > 100 µM
TGI (HCT-15 colon): > 100 µM
TGI (SN12C renal): > 100 µM
TGI (SNB-75 CNS): > 100 µM
TGI (ACHN renal): > 100 µM
TGI (NCI-H522 lung): > 100 µM
TGI (MDA-MB-231 breast): > 100 µM
TGI (A498 renal): > 100 µM
TGI (SK-MEL-5 melanoma): > 100 µM
TGI (DU-145 prostate): > 100 µM
TGI (OVCAR-4 ovarian): > 100 µM
TGI (UO-31 renal): > 100 µM
TGI (SF-539 CNS): > 100 µM
TGI (A549 NSCLC): > 100 µM
TGI (SK-OV-3 ovarian): > 100 µM
TGI (SF-268 CNS): > 100 µM
TGI (HCT-116 colon): > 100 µM
TGI (SF-295 CNS): > 100 µM
TGI (IGROV1 ovarian): > 100 µM
TGI (TK-10 renal): > 100 µM
TGI (RPMI-8226 leukemia): > 100 µM
TGI (LOX IMVI melanoma): > 100 µM
TGI (U251 CNS): > 100 µM
TGI (UACC-62 melanoma): > 100 µM
TGI (SR leukemia): > 100 µM
TGI (OVCAR-3 ovarian): > 100 µM
TGI (CCRF-CEM leukemia): > 100 µM
TGI (CAKI-1 renal): > 100 µM
TGI (MDA-N): > 100 µM
TGI (SK-MEL-2 melanoma): > 100 µM
TGI (OVCAR-5 ovarian): > 100 µM
TGI (T-47D breast): > 100 µM
TGI (BT-549 breast): > 100 µM
TGI (NCI/ADR-RES ovarian): > 100 µM
TGI (COLO 205 colon): > 100 µM
TGI (SNB-19 CNS): > 100 µM
TGI (HS 578T breast): > 100 µM
TGI (HT29 colon): > 100 µM
TGI (K-562 leukemia): > 100 µM
TGI (HL-60(TB) leukemia): > 100 µM
TGI (MOLT-4 leukemia): > 100 µM
TGI (OVCAR-8 ovarian): > 100 µM
